Test results taken from PubChem BioAssay AID248 (DTP/NCI, 2004).
Values joined by “and” are separate entries in the source; they are usually repeats but may differ in a detail not shown here. Equal entries are not always repeated. Toxic doses and inconclusive results are not listed.

Tested on: L1210 leukemia ip in BDF1 mice, survival T/C
Experiment: NCI In Vivo Anticancer Drug Screen. Data for tumor model L1210 Leukemia (intraperitoneal) in B6D2F1 (BDF1) mice
Conditions: endpoint: mean survival time, higher = longer survival
Experimental: The antitumor activity of compounds was measured in mice bearing transplantable tumors. Survival or tumor size were measured and the results are expressed as the measurement made in the treated group (T) divided by the measurement made in the vehicle treated control group (C). The tumor model used in this assay is L1210 Leukemia (intraperitoneal) in B6D2F1 (BDF1) mice

[1] = dose: 100.0 mg/kg/injection, schedule: Q01DX001 (ip), vehicle: saline
[2] = dose: 200.0 mg/kg/injection, schedule: Q01DX001 (ip), vehicle: saline
[3] = dose: 100.0 mg/kg/injection, schedule: Q04DX002 (ip), vehicle: Klucel (hydroxypropylcellulose) (HPC)
[4] = dose: 200.0 mg/kg/injection, schedule: Q04DX002 (ip), vehicle: Klucel (hydroxypropylcellulose) (HPC)
[5] = dose: 400.0 mg/kg/injection, schedule: Q04DX002 (ip), vehicle: Klucel (hydroxypropylcellulose) (HPC)

SMILES: CCOC(=O)c1ccc[n+]([O-])c1
- T/C (dose: 100.0 mg/kg/injection, schedule: Q04DX003 (ip), vehicle: saline): 94 % of control
- T/C (dose: 200.0 mg/kg/injection, schedule: Q04DX003 (ip), vehicle: saline): 95 % of control
- T/C (dose: 400.0 mg/kg/injection, schedule: Q04DX003 (ip), vehicle: saline): 94 % of control

SMILES: OCCC/C=C/CCI
- T/C (dose: 100.0 mg/kg/injection, schedule: Q01DX009 (ip), vehicle: Klucel (hydroxypropylcellulose) (HPC)): 93 % of control
- T/C (dose: 100.0 mg/kg/injection, schedule: Q04DX003 (ip), vehicle: Klucel (hydroxypropylcellulose) (HPC)): 112 % of control
- T/C (dose: 200.0 mg/kg/injection, schedule: Q01DX009 (ip), vehicle: Klucel (hydroxypropylcellulose) (HPC)): 90 % of control
- T/C (dose: 200.0 mg/kg/injection, schedule: Q04DX003 (ip), vehicle: Klucel (hydroxypropylcellulose) (HPC)): 109 % of control
- T/C (dose: 400.0 mg/kg/injection, schedule: Q01DX009 (ip), vehicle: Klucel (hydroxypropylcellulose) (HPC)): 98 % of control
- T/C (dose: 400.0 mg/kg/injection, schedule: Q04DX003 (ip), vehicle: Klucel (hydroxypropylcellulose) (HPC)): 91 % of control

SMILES: CC1CCCC[N-]1.CC1CCCC[N-]1.CC1CCCC[N-]1.CC1CCCC[N-]1.N#CS.[Zn+2] (stereo unspecified)
- T/C [1]: 93 % of control
- T/C [2]: 103 % of control

SMILES: O=C(NC(=S)Nc1cccc2c(O)cccc12)c1ccc(Cl)cc1Cl
- T/C (dose: 100.0 mg/kg/injection, schedule: Q01DX001 (ip), vehicle: saline with Tween-80): 105 % of control
- T/C (dose: 100.0 mg/kg/injection, schedule: Q01DX009 (ip), vehicle: saline with Tween-80): 98 % of control and 90 % of control
- T/C (dose: 100.0 mg/kg/injection, schedule: Q04DX002 (ip), vehicle: saline with Tween-80): 95 % of control and 98 % of control
- T/C (dose: 100.0 mg/kg/injection, schedule: Q04DX003 (ip), vehicle: saline with Tween-80): 103 % of control
- T/C (dose: 200.0 mg/kg/injection, schedule: Q01DX001 (ip), vehicle: saline with Tween-80): 103 % of control
- T/C (dose: 200.0 mg/kg/injection, schedule: Q01DX009 (ip), vehicle: saline with Tween-80): 97 % of control and 117 % of control
- T/C (dose: 200.0 mg/kg/injection, schedule: Q04DX002 (ip), vehicle: saline with Tween-80): 101 % of control and 106 % of control
- T/C (dose: 200.0 mg/kg/injection, schedule: Q04DX003 (ip), vehicle: saline with Tween-80): 92 % of control
- T/C (dose: 400.0 mg/kg/injection, schedule: Q01DX001 (ip), vehicle: saline with Tween-80): 106 % of control
- T/C (dose: 400.0 mg/kg/injection, schedule: Q01DX009 (ip), vehicle: saline with Tween-80): 94 % of control and 98 % of control
- T/C (dose: 400.0 mg/kg/injection, schedule: Q04DX002 (ip), vehicle: saline with Tween-80): 95 % of control and 90 % of control
- T/C (dose: 400.0 mg/kg/injection, schedule: Q04DX003 (ip), vehicle: saline with Tween-80): 94 % of control

SMILES: CN=C(NC)c1ccc(NC(=O)c2ccc(C(=O)Nc3ccc(C(=NC)NC)cc3)cc2)cc1
- T/C (dose: 0.23 mg/kg/injection, schedule: Q01DX Z (ip), vehicle: methylcellulose (MC)): 96 % of control and 124 % of control
- T/C (dose: 0.9 mg/kg/injection, schedule: Q01DX Z (ip), vehicle: methylcellulose (MC)): 110 % of control and 177 % of control and 205 % of control
- T/C (dose: 1.87 mg/kg/injection, schedule: Q01DX Z (ip), vehicle: methylcellulose (MC)): 150 % of control
- T/C (dose: 1.9 mg/kg/injection, schedule: Q01DX Z (ip), vehicle: methylcellulose (MC)): 124 % of control
- T/C (dose: 3.75 mg/kg/injection, schedule: Q01DX Z (ip), vehicle: methylcellulose (MC)): 161 % of control
- T/C (dose: 7.5 mg/kg/injection, schedule: Q01DX Z (ip), vehicle: methylcellulose (MC)): 160 % of control
- T/C (dose: 15.0 mg/kg/injection, schedule: Q01DX Z (ip), vehicle: methylcellulose (MC)): 124 % of control
- T/C (dose: 15.0 mg/kg/injection, schedule: Q01DX Z (oral), vehicle: carboxymethylcellulose (CMC)): 111 % of control
- T/C (dose: 30.0 mg/kg/injection, schedule: Q01DX Z (ip), vehicle: methylcellulose (MC)): 108 % of control
- T/C (dose: 30.0 mg/kg/injection, schedule: Q01DX Z (oral), vehicle: carboxymethylcellulose (CMC)): 102 % of control
- T/C (dose: 60.0 mg/kg/injection, schedule: Q01DX Z (oral), vehicle: carboxymethylcellulose (CMC)): 107 % of control
- T/C (dose: 120.0 mg/kg/injection, schedule: Q01DX Z (oral), vehicle: carboxymethylcellulose (CMC)): 96 % of control
- T/C (dose: 240.0 mg/kg/injection, schedule: Q01DX Z (oral), vehicle: carboxymethylcellulose (CMC)): 115 % of control
- T/C (dose: 480.0 mg/kg/injection, schedule: Q01DX Z (oral), vehicle: carboxymethylcellulose (CMC)): 113 % of control

SMILES: NC(CC(=O)O)C(=O)O (stereo unspecified)
- T/C (dose: 100.0 mg/kg/injection, schedule: Q01DX001 (ip), vehicle: carboxymethylcellulose (CMC)): 94 % of control
- T/C [1]: 102 % of control and 95 % of control
- T/C (dose: 100.0 mg/kg/injection, schedule: Q01DX009 (ip), vehicle: saline): 97 % of control
- T/C [3]: 98 % of control
- T/C (dose: 200.0 mg/kg/injection, schedule: Q01DX001 (ip), vehicle: carboxymethylcellulose (CMC)): 89 % of control
- T/C [2]: 96 % of control and 93 % of control
- T/C (dose: 200.0 mg/kg/injection, schedule: Q01DX009 (ip), vehicle: saline): 100 % of control
- T/C [4]: 98 % of control
- T/C (dose: 400.0 mg/kg/injection, schedule: Q01DX001 (ip), vehicle: carboxymethylcellulose (CMC)): 92 % of control
- T/C (dose: 400.0 mg/kg/injection, schedule: Q01DX001 (ip), vehicle: saline): 102 % of control and 90 % of control
- T/C (dose: 400.0 mg/kg/injection, schedule: Q01DX009 (ip), vehicle: saline): 97 % of control
- T/C (dose: 400.0 mg/kg/injection, schedule: Q01DX030 (sc), vehicle: other): 97 % of control
- T/C [5]: 95 % of control
- T/C (dose: 800.0 mg/kg/injection, schedule: Q01DX030 (sc), vehicle: other): 96 % of control

SMILES: O=C(Cc1ccccc1)c1ccc2c3c(ccc([N+](=O)[O-])c13)CC2
- T/C (dose: 100.0 mg/kg/injection, schedule: Q04DX003 (ip), vehicle: acetone): 101 % of control
- T/C (dose: 200.0 mg/kg/injection, schedule: Q04DX003 (ip), vehicle: acetone): 105 % of control
- T/C (dose: 400.0 mg/kg/injection, schedule: Q04DX003 (ip), vehicle: acetone): 105 % of control

SMILES: CC(=O)Oc1cc(-c2ccc3c(c2)C2(C)c4cc(OC(C)=O)c5ccccc5c4OC2(C)N3C)c(OC(C)=O)c2ccccc12 (stereo unspecified)
- T/C (dose: 100.0 mg/kg/injection, schedule: Q01DX001 (ip), vehicle: other): 92 % of control
- T/C (dose: 200.0 mg/kg/injection, schedule: Q01DX001 (ip), vehicle: other): 88 % of control
- T/C (dose: 400.0 mg/kg/injection, schedule: Q01DX001 (ip), vehicle: other): 92 % of control

SMILES: N#CC(Cl)(Cl)C(N)=O
- T/C (dose: 12.5 mg/kg/injection, schedule: Q04DX002 (ip), vehicle: saline): 88 % of control

SMILES: CCCS(=O)(=O)N1CCCC(C)C1 (stereo unspecified)
- T/C [3]: 94 % of control
- T/C [4]: 97 % of control
- T/C [5]: 97 % of control

SMILES: CCC1c2ccc3cc(OC)ccc3c2C(=O)CC1C(=O)O (stereo unspecified)
- T/C (dose: 100.0 mg/kg/injection, schedule: Q01DX009 (sc), vehicle: steriod suspending solution): 102 % of control
- T/C (dose: 100.0 mg/kg/injection, schedule: Q04DX003 (sc), vehicle: steriod suspending solution): 104 % of control
- T/C (dose: 200.0 mg/kg/injection, schedule: Q01DX009 (sc), vehicle: steriod suspending solution): 96 % of control
- T/C (dose: 200.0 mg/kg/injection, schedule: Q04DX003 (sc), vehicle: steriod suspending solution): 98 % of control
- T/C (dose: 400.0 mg/kg/injection, schedule: Q01DX009 (sc), vehicle: steriod suspending solution): 106 % of control
- T/C (dose: 400.0 mg/kg/injection, schedule: Q04DX003 (sc), vehicle: steriod suspending solution): 105 % of control

SMILES: O=C1C=CC(=O)N1c1ccc(Cc2ccc(N3C(=O)C=CC3=O)cc2)cc1
- T/C (dose: 26.6 mg/kg/injection, schedule: Q01DX Z (ip), vehicle: methylcellulose (MC)): 90 % of control
- T/C (dose: 40.0 mg/kg/injection, schedule: Q01DX Z (ip), vehicle: methylcellulose (MC)): 95 % of control

SMILES: CC(C)OC1=CC2C(=CCC3C2(C)C(=O)CC2(C)C(C(C)(O)C(=O)/C=C/C(C)(C)O)C(O)CC32C)C(C)(C)C1=O (stereo unspecified)
- T/C (dose: 37.5 mg/kg/injection, schedule: Q04DX002 (ip), vehicle: saline with Tween-80): 101 % of control
- T/C (dose: 75.0 mg/kg/injection, schedule: Q04DX002 (ip), vehicle: saline with Tween-80): 93 % of control
- T/C (dose: 150.0 mg/kg/injection, schedule: Q04DX002 (ip), vehicle: saline with Tween-80): 108 % of control

SMILES: BrCc1cccc(C[P+](c2ccccc2)(c2ccccc2)c2ccccc2)c1
- T/C (dose: 5.0 mg/kg/injection, schedule: Q01DX001 (ip), vehicle: saline): 112 % of control
- T/C (dose: 10.0 mg/kg/injection, schedule: Q01DX001 (ip), vehicle: saline): 114 % of control
- T/C (dose: 20.0 mg/kg/injection, schedule: Q01DX001 (ip), vehicle: saline): 114 % of control
- T/C (dose: 50.0 mg/kg/injection, schedule: Q01DX001 (ip), vehicle: saline): 110 % of control
